What was measured:
5-HT1A receptor site = settings: cited from earlier work
dopamine D-2 receptor = biological target: T1, dopamine D-2 receptor (Rattus norvegicus, UniProt P61169); assay: D-2 Binding (3H-spiroperidol, homogenized limbic brain tissue)
T1 construct: from tissue; host or cells: homogenized limbic brain tissue
Method: High affinity for the dopamine D-2 receptor was established by the standard experimental test procedure of Fields, et al., Brain Res., 136, 578 (1977) and Yamamura et al., eds., Neurotransmitter Receptor Binding, Raven Press, N.Y. (1978) wherein homogenized limbic brain tissue is incubated with ^3 H-spiroperidol and various concentrations of test compound, filtered and washed and shaken with Hydrofluor scintillation cocktail (National Diagnostics) and counted in a Packard 460 CD scintillation counter.

[1] = biological target: T2, serotonin 5-HT1A receptor (Rattus norvegicus, UniProt P19327); assay: 5-HT1A Binding (displacement of [3H] 8-OHDPAT)
T2 construct: following the procedure of Hall et al., J. Neurochem; 44, 1685 (1985); from tissue
T2 sequence (P19327 1-422): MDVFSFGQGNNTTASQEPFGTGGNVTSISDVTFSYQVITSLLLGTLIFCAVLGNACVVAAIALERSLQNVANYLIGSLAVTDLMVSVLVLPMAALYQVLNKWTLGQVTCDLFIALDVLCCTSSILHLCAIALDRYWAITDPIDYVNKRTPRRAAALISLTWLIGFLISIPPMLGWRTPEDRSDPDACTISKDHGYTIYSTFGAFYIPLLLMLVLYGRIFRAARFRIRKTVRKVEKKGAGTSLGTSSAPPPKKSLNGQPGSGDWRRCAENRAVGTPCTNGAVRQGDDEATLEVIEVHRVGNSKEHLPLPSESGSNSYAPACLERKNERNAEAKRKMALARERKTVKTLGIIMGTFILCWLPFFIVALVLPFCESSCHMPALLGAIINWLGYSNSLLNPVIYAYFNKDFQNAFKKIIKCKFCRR
Source text: High affinity for the serotonin 5-HT1A receptor was established by testing the claimed compound's ability to displace [^3 H] 8-OHDPAT (dipropylaminotetralin) from the 5-HT1A serotonin receptor following the procedure of Hall et al., J. Neurochem. 44, 1685 (1985). […] The anxiolytic activity of buspirone is believed to be, at least partially, due to its 5-HT1A receptor affinity (Vander Maclen et al., Eur. J. Pharmacol. 1986, 129 (1-2) 133-130).

[2] = tested on: 5-HT1A serotonin receptor subtype; settings: standard for anxiolytic activity; cited from earlier work

T1 sequence (P61169 whole entry): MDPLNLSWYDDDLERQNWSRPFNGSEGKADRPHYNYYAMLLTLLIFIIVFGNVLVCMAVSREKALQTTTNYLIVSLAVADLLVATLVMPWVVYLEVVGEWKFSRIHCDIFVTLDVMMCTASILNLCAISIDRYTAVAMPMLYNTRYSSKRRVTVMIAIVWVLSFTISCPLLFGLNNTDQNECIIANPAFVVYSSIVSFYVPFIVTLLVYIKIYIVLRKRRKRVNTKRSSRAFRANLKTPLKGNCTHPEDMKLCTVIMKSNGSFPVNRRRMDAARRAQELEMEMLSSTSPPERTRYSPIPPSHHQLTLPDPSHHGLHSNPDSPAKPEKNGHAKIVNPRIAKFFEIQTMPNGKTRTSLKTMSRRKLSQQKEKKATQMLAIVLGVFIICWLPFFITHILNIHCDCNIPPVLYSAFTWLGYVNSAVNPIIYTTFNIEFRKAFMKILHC

| inhibition at 1 µM (dopamine D-2 receptor) [%] | inhibition at 0.1 µM [1] [%] | SMILES | also measured |
| --- | --- | --- | --- |
|  |  | O=C1CC2(CCCC2)CC(=O)N1CCCCNCC1COc2ccccc2O1 (single isomer, unassigned; (-)) [(-)-MDL 72832] | binding at the 5-HT1A receptor site relative to the dextrorotary isomer (5-HT1A receptor site; (-)-isomer vs dextrorotary isomer): 32 times |
| 29 | 59 | O=C(NC1CCN(CC2COc3ccccc3O2)CC1)C12CC3CC(CC(C3)C1)C2 (stereo not drawn) [Example 1, N-[1-[(2,3-Dihydro-1,4-benzodioxin-2-yl)methyl]-4-piperidinyl]tricyclo[3.3.1.1^3,7]decane-1-carboxamide] | IC50 [1]: 107 nM |
|  | 4 | O=C1C2C3C=CC(C4C=CC43)C2C(=O)N1C1CCN(CC2COc3ccccc3O2)CC1 (stereo not drawn) [Example 2, 3a, 4,4a, 6a, 7,7a-Hexahydro-2-[1-[(2,3-Dihydro-1,4-benzodioxin-2-yl)methyl]-4-piperidinyl]-4,7-etheno-1H-cyclobut[f]isoindole-1,3(2H)-dione] |  |
|  | 45 | O=C1c2ccccc2S(=O)(=O)N1C1CCN(CC2COc3ccccc3O2)CC1 (stereo not drawn) [Example 3, 2-[1-[(2,3-Dihydro-1,4-benzodioxin-2-yl)methyl]-4-piperidinyl]-1,2-benzoisothiazol-3(2H)-one 1,1-dioxide] |  |
| 97 | 96 | O=C1C2CC(C(=O)N1CC1CCN(CC3COc4ccccc4O3)CC1)C1C2C2C3CC4C2C4C31 (stereo not drawn) [Example 4, 3-[[1-[(2,3-Dihydro-1,4-benzodioxin-2-yl)methyl]-4-piperidinyl]methyl]decahydro-2H-1,5-methano-6,7,9-methenopentaleno[1,2-d]azepine-2,4(3H)-dione] |  |
| 52 | 92 | O=C(NCC1CCN(CC2COc3ccccc3O2)CC1)C12CC3CC(CC(C3)C1)C2 (stereo not drawn) [Example 5, N-[[1-[(2,3-Dihydro-1,4-benzodioxin-2-yl)methyl]-4-piperidinyl]methyl]tricyclo[3.3.1.1^3,7]decane-1-carboxamide] |  |
|  |  | O=C1CC2(CCCC2)CC(=O)N1CCCCNCC1COc2ccccc2O1 (stereo not drawn) [MDL 72832, 8-[4-(1,4-benzodioxan-2-ylmethylamino)butyl]-8-azaspiro[4.5]decane-7,9-dione] | ligand selectivity for 5-HT1A receptors (5-HT1A receptor site; Fozard et al. 1987): selective and stereospecific |
|  |  | O=C1CC2(CCCC2)CC(=O)N1CCCCN1CCN(c2ncccn2)CC1 [buspirone] | affinity for the 5-HT1A serotonin receptor subtype [2]: potent affinity |
